Laboratory results: US20210321638A1, “ANIMAL FEED AND METHODS TO PROVIDE SUCH FEED” (Nutreco Nederland B.V., priority 2016, published 2021)

How the values were obtained:
E. coli = assay: in vitro adhesion of bacteria to coated 96-well plate, time to onset OD600; type: cell-based, Escherichia coli
Excerpt: (§1) Use was made of a 96-well plate on which the ABM mycelium was coated. For this, the ABM mycelium (in this and each case below a fermented rye product was actually used, in which product the amount of ABM mycelium was about 15% w/w) was suspended in PBS to a final concentration of 1% (w/v) and mixed thoroughly. Subsequently the suspension was centrifuged to remove insoluble material. Thereafter, the supernatant was used for coating the wells of the microtiter plate. For the adhesion assessment, a Salmonella typhimurium suspension was added to the microtiter plate. The plate was then incubated for 30 minutes and after this incubation step washed with PBS. Subsequently growth medium was added to the wells and the time to onset OD600 value was determined. The optical density (OD) measurement was used as a tool to compare numbers of adhered bacteria to the coated wells of the 96-well plate with different compounds. The initial cell density of adhered bacteria correlates with the time-dependent detection of the growth by optical density measurement.
In a second in vitro study, the test was repeated, and additionally the effect on Salmonella enteritidis and E. coli was measured. Also, the amount of ABM mycelium was used in the full amount (see above; denoted “100%”), half of this amount (“50%”) and a quarter of this amount (“25%”). […]

Salmonella typhimurium = assay: as above; type: cell-based; conditions: Table 4, Example 4; total amount of agents the same in all experiments; control 6.95
Experimental: Example 1 describes an in vitro model study for assessing the effect of ABM mycelium on bacterial adhesion. In this method the adhesion of Salmonella typhimurium to ABM mycelium is assessed.
as §1
In a second in vitro study, the test was repeated, and additionally the effect on Salmonella enteritidis and E. coli was measured. […]

OC[C@H]1O[C@@H](O[C@H]2[C@H](O)[C@H](O)C(O)O[C@@H]2CO)[C@@H](O)[C@@H](O)[C@@H]1O (stereo partly drawn) [β-1,4-mannobiose]
effect on the adhesion of E. coli / onset OD600, in words (E. coli; Example 4, compared to the control and β-1,4-mannobiose alone): does not have an effect
time to onset OD600, E. coli (E. coli; Table 4, Example 4, total amount of agents the same in all experiments, control 7.10): 7.30 h
time to onset OD600, S. typhimurium (Salmonella typhimurium): 5.90 h
